Our source for the IC50 values is patent US11970452B2, “Modulators of mas-related G-protein receptor X2 and related products and methods” (Escient Pharmaceuticals, Inc., priority 2020, dated 2024).

In this test the target is T1, human MRGPRX2 (Homo sapiens, UniProt Q96LB1).
T1 construct: expressed in transfected cells
T1 sequence (Q96LB1 1-330): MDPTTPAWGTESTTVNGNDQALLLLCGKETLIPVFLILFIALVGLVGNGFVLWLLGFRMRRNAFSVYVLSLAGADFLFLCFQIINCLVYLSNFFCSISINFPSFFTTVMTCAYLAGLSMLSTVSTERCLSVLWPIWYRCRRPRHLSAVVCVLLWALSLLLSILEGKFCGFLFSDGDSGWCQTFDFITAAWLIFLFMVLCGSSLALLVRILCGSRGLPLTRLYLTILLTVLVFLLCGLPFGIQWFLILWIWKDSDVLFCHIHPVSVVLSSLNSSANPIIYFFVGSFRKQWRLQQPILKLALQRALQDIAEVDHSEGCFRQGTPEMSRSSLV
The test can be described thus: MRGPRX2 activity: IP-One HTRF antagonist assay versus 0.3 uM Cortistatin 14. The test is classed as cell-based. Conditions: CHO cells expressing human MRGPRX2; IP-1 HTRF; versus 0.3 uM Cortistatin 14 agonist; read-out: MRGPR2 Antagonist Activity. On the procedure: CHO cells stably transfected to express human MRGPRX2 were maintained in an incubator at 37° C. with 5% CO2 and grown in F12 (HAM) media with 10% fetal bovine serum (FBS), 1% Glutamax, 1% penicillin/streptomycin, 800 μg/mL Geneticin (G418), and 300 μg/mL Hygromycin B.
Cells were plated in a […] assay plate at 20,000 cells per well in 12 μL of Opti-MEM and kept in an incubator overnight. On the day of the assay, compounds solubilized at 10 mM in DMSO were added as a 10-point curve (30 uM final top concentration with 1:3 serial dilutions) using a Tecan D300E digital dispenser. Agonists were diluted in assay buffer (final concentrations of 5.7 mM Tris-HCl, 43 mM NaCl, 50 mM LiCl, pH=8) and 2 μL of the agonist Cortistatin 14 (CPC Scientific, catalog CORT-002) are added to each well. Final concentrations of agonists were 0.3 μM Cortistatin. Final concentrations of DMSO were kept consistent across the plate. Plates were incubated in the dark for 1 h at 37° C. and then for 1 h at room temperature. IP-1 standards and HTRF detection reagents were added according to the IP-One-Gq Kit purchased from Cisbio (part number 62IPAPEJ) and incubated in the dark for 1 h at room temperature. The plate was read on a Molecular Devices SpectraMax iD5 plate reader. The HTRF ratio was calculated from the raw data and graphed using GraphPad Prism to calculate an IC50 value for each compound.
The activity ranges are denoted as follows: “+++++” denotes antagonist activity <100 nM; “++++” denotes antagonist activity between 100 and 500 nM; “+++” denotes activity between 501 and 1000 nM; “++” denotes activity between 1001 and 2500 nM; and “+” denotes activity >2500 nM
In the case of `O=C(N[C@H]1CC[C@@H](Nc2cc(C(F)F)nc3ccc(Cl)cc23)CC1)c1ccc(F)cc1` [1-3, 4-fluoro-N-[(1s,4s)-4-{[6-chloro-2-(difluoromethyl)quinolin-4-yl]amino}cyclohexyl]benzamide], the IC50 is 100 to 500 nM.
As to `O=C(N[C@H]1CC[C@@H](Nc2cc(C(F)(F)F)nc3ccccc23)CC1)c1ccccc1Cl` [3-12], the IC50 lay in the range of 100 to 500 nM.
For the compound `O=C(N[C@H]1CC[C@@H](Nc2cc(C(F)(F)F)nc3ccccc23)CC1)c1ccccn1` [3-21], the IC50 was in the range of 501 to 1000 nM.
For `CCC(C(=O)N[C@H]1CC[C@@H](Nc2cc(C(F)(F)F)nc3ccccc23)CC1)c1ccccc1` (some centres unmarked) [3-24], the IC50 lay within 1000 to 2500 nM.
`COc1ccc(C(=O)N[C@H]2CC[C@@H](Nc3cc(C(F)(F)F)nc4ccccc34)CC2)cc1F` [3-27]: the IC50 lay within 501 to 1000 nM.
The same measure for `O=C(N[C@H]1CC[C@@H](Nc2cc(C(F)(F)F)nc3ccccc23)CC1)c1cccs1` [3-36]: 501 to 1000 nM.
As to `O=C(N[C@H]1CC[C@@H](Nc2cc(C(F)(F)F)nc3ccccc23)CC1)c1cccc(F)c1` [3-42], the IC50 fell in the range of 100 to 500 nM.
The same measure for `COc1ccc(C(=O)N[C@H]2CC[C@@H](Nc3cc(C(F)(F)F)nc4ccc(Cl)cc34)CC2)c(C)n1` [4-6]: 501 to 1000 nM; for `CNc1cccc(C(=O)N[C@H]2CC[C@@H](Nc3cc(C(F)(F)F)nc4ccc(Cl)cc34)CC2)c1` [4-8]: 100 to 500 nM.
As for `O=C(N[C@H]1CC[C@@H](Nc2cc(C(F)(F)F)nc3ccc(Cl)cc23)CC1)c1ccc2[nH]c(-c3ccncc3)nc2c1` [4-23], the IC50 is less than 100 nM.
In the case of `O=C(N[C@H]1CC[C@@H](Nc2cc(C(F)(F)F)nc3ccc(Cl)cc23)CC1)c1ccc2nc(Cl)sc2c1` [4-57] it was 501 to 1000 nM; in that of `O=C(N[C@H]1CC[C@@H](Nc2cc(C(F)(F)F)nc3ccc(Cl)cc23)CC1)c1n[nH]c2c1COCC2` [4-60], 501 to 1000 nM.
In the case of `Cn1cc(I)c(C(=O)N[C@H]2CC[C@@H](Nc3cc(C(F)(F)F)nc4ccc(Cl)cc34)CC2)n1` [4-90] it was 501 to 1000 nM; in that of `CN(C)c1ccc(C(=O)N[C@H]2CC[C@@H](Nc3cc(C(F)(F)F)nc4ccc(Cl)cc34)CC2)cc1` [4-102], 100 to 500 nM.
On to `CC(=O)Nc1ccc(C(=O)N[C@H]2CC[C@@H](Nc3cc(C(F)(F)F)nc4ccc(Cl)cc34)CC2)cc1` [4-103], for which the IC50 is less than 100 nM.
Regarding `O=C(N[C@H]1CC[C@@H](Nc2cc(C(F)(F)F)nc3ccc(Cl)cc23)CC1)c1csnn1` [4-107], the IC50 fell in the range of 501 to 1000 nM.
In the case of `O=C(N[C@H]1CC[C@@H](Nc2cc(C(F)(F)F)nc3ccc(Cl)cc23)CC1)C1CCN(C(=O)c2ccccc2Cl)CC1` [4-122] it was more than 2500 nM; in that of `CS(=O)(=O)c1ccc(C(=O)N[C@H]2CC[C@@H](Nc3cc(C(F)(F)F)nc4ccc(Cl)cc34)CC2)c(Cl)c1` [4-123], 100 to 500 nM; in that of `CC(C)Cc1cc(C(=O)N[C@H]2CC[C@@H](Nc3cc(C(F)(F)F)nc4ccc(Cl)cc34)CC2)n(C)n1` [4-129], 1000 to 2500 nM.
The same measure for `O=C(CCOc1cccc(F)c1)N[C@H]1CC[C@@H](Nc2cc(C(F)(F)F)nc3ccc(Cl)cc23)CC1` [4-134]: more than 2500 nM; for `Cc1cc(C(F)(F)F)nn1CC(=O)N[C@H]1CC[C@@H](Nc2cc(C(F)(F)F)nc3ccc(Cl)cc23)CC1` [4-141]: 1000 to 2500 nM; for `O=C(N[C@H]1CC[C@@H](Nc2cc(C(F)(F)F)nc3ccc(Cl)cc23)CC1)c1ccc2oc(=O)ccc2c1` [4-145]: 100 to 500 nM.
For the compound `O=C(N[C@H]1CC[C@@H](Nc2cc(C(F)(F)F)nc3ccc(Cl)cc23)CC1)c1cccn1-c1ccccc1` [4-162], the IC50 was in the range of 1000 to 2500 nM.
As for `O=C1Nc2c(C(=O)N[C@H]3CC[C@@H](Nc4cc(C(F)(F)F)nc5ccc(Cl)cc45)CC3)cccc2C1=O` [4-164], the IC50 was in the range of 100 to 500 nM.
Regarding `CCCS(=O)(=O)Nc1ccc(F)c(C(=O)N[C@H]2CC[C@@H](Nc3cc(C(F)(F)F)nc4ccc(Cl)cc34)CC2)c1F` [4-173], the IC50 fell in the range of 100 to 500 nM.
The same measure for `CC1C(C(=O)N[C@H]2CC[C@@H](Nc3cc(C(F)(F)F)nc4ccc(Cl)cc34)CC2)CC2CC1C2(C)C` (some centres unmarked) [4-200]: 1000 to 2500 nM; for `CCCc1nnsc1C(=O)N[C@H]1CC[C@@H](Nc2cc(C(F)(F)F)nc3ccc(Cl)cc23)CC1` [4-209]: 1000 to 2500 nM.
The same measure for `O=C(N[C@H]1CC[C@@H](Nc2cc(C(F)(F)F)nc3ccccc23)CC1)c1ccnc2ccccc12` [4-230]: 1000 to 2500 nM; for `O=C(N[C@H]1CC[C@@H](Nc2cc(C(F)(F)F)nc3ccccc23)CC1)c1ccc(Cl)s1` [4-241]: 501 to 1000 nM.
In the case of `N#Cc1ccc(C(=O)N[C@H]2CC[C@@H](Nc3cc(C(F)(F)F)nc4ccccc34)CC2)s1` [4-242] it was 1000 to 2500 nM; in that of `N#Cc1csc(C(=O)N[C@H]2CC[C@@H](Nc3cc(C(F)(F)F)nc4ccccc34)CC2)c1` [4-243], 501 to 1000 nM.
For the compound `O=C(N[C@H]1CC[C@@H](Nc2cc(C(F)(F)F)nc3ccccc23)CC1)c1cc(Cl)cs1` [4-251], the IC50 lay in the range of 501 to 1000 nM.
On to `COc1ccc(C(=O)N[C@H]2CC[C@@H](Nc3cc(C(F)(F)F)nc4ccccc34)CC2)cc1N(C)C` [4-258], for which the IC50 fell in the range of 501 to 1000 nM.
For the compound `O=C(N[C@H]1CC[C@@H](Nc2cc(C(F)(F)F)nc3ccccc23)CC1)c1ccc2ncccc2n1` [4-265], the IC50 lay in the range of 1000 to 2500 nM.
In the case of `O=C(N[C@H]1CC[C@@H](Nc2cc(C(F)(F)F)nc3ccccc23)CC1)c1coc2ccccc12` [4-272] it was 100 to 500 nM; in that of `CC(C)C(=O)Nc1cccc(C(=O)N[C@H]2CC[C@@H](Nc3cc(C(F)(F)F)nc4ccc(Cl)cc34)CC2)c1` [4-279], 100 to 500 nM.
As for `CN(C)C(=O)Nc1cccc(C(=O)N[C@H]2CC[C@@H](Nc3cc(C(F)(F)F)nc4ccc(Cl)cc34)CC2)c1` [4-281], the IC50 lay within 100 to 500 nM.
The same measure for `CCNc1cccc(C(=O)N[C@H]2CC[C@@H](Nc3cc(C(F)(F)F)nc4ccc(Cl)cc34)CC2)c1` [4-282]: 100 to 500 nM.
As to `O=C1CCc2ccc(C(=O)N[C@H]3CC[C@@H](Nc4cc(C(F)(F)F)nc5ccc(Cl)cc45)CC3)cc2N1` [4-283], the IC50 is 100 to 500 nM.
The same measure for `O=C(N[C@H]1CC[C@@H](Nc2cc(C(F)(F)F)nc3ccccc23)CC1)[C@H]1C[C@@H]1c1ccccc1` [4-291]: 1000 to 2500 nM; for `CNC(=O)Nc1cccc(C(=O)N[C@H]2CC[C@@H](Nc3cc(C(F)(F)F)nc4ccc(Cl)cc34)CC2)c1` [Example 5A]: less than 100 nM.
